Reference: patent US9365584B2, “Thieno [2,3-B] pyridinedione activators of AMPK and therapeutic uses thereof” (Poxel, priority 2009, dated 2016)

How the values were obtained:
ob/ob and db/db mice = details: 8 day AICAR administration; cited from earlier work
AMPK = AMPK enzyme activity assay (Delfia technology, AMARA peptide substrate); type: biochemical; details: compound at 30 μM vs AMP at 200 μM
Summary of the method: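 Value is the ratio of compound (30 μM) to AMP (200 μM) response, each as % of basal control. Phosphorylation of the AMARA peptide after AMPK addition was read by Delfia with an anti-phosphoserine antibody.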

For `NC(=O)c1ncn([C@@H]2O[C@H](CO)[C@@H](O)[C@H]2O)c1N` [AICAR], the reduces blood glucose (ob/ob and db/db mice) is listed as 35%.
For `N#Cc1cccc(C2(F)C(=O)Nc3sc(Cl)c(-c4ccc(F)cc4O)c3C2=O)c1` (centres unmarked) [No 224, 3-[2-chloro-5-fluoro-3-(4-fluoro-2-hydroxy-phenyl)-4,6-dioxo-7H-thieno[2,3-b]pyridin-5-yl]benzonitrile], the “Activity: Ratio between the % of control (basal activity) of compound of formula (1) at 30 μM and the % of control (basal activity) of AMP (natural substrate) at 200 μM” value (“Activity: Ratio between the % of control” for short) (AMPK) was “C (C≧75%)”.
For `COc1ccc(C2(F)C(=O)Nc3sc(Cl)c(-c4ccc(F)cc4O)c3C2=O)cc1C` (centres unmarked) [No 225, 2-chloro-5-fluoro-3-(4-fluoro-2-hydroxy-phenyl)-5-(4-methoxy-3-methyl-phenyl)-7H-thieno[2,3-b]pyridine-4,6-dione], the “Activity: Ratio between the % of control” value (AMPK) was “C (C≧75%)”.
In the case of `O=C1Nc2sc(Cl)c(-c3ccc(F)cc3O)c2C(=O)C1(F)c1ccsc1` (centres unmarked) [No 226, 2-chloro-5-fluoro-3-(4-fluoro-2-hydroxy-phenyl)-5-(3-thienyl)-7H-thieno[2,3-b]pyridine-4,6-dione], the “Activity: Ratio between the % of control” value (AMPK) is reported as “C (C≧75%)”.
With `COc1c(-c2c(Cl)sc3c2C(=O)C(F)(c2ccc(F)cc2)C(=O)N3)ccc(C)c1F` (centres unmarked) [No 227, 2-chloro-5-fluoro-3-(3-fluoro-2-methoxy-4-methyl-phenyl)-5-(4-fluorophenyl)-7H-thieno[2,3-b]pyridine-4,6-dione] the “Activity: Ratio between the % of control” value (AMPK) was “B (50%≦B<75%)”.
With `Cc1ccc(-c2c(Cl)sc3c2C(=O)C(F)(c2ccc(F)cc2)C(=O)N3)c(O)c1F` (centres unmarked) [No 228, 2-chloro-5-fluoro-3-(3-fluoro-2-hydroxy-4-methyl-phenyl)-5-(4-fluorophenyl)-7H-thieno[2,3-b]pyridine-4,6-dione] the “Activity: Ratio between the % of control” value (AMPK) was “C (C≧75%)”.
With `COc1c(-c2c(Cl)sc3c2C(=O)C(F)(c2ccccc2)C(=O)N3)ccc(F)c1C` (centres unmarked) [No 229, 2-chloro-5-fluoro-3-(4-fluoro-2-methoxy-3-methyl-phenyl)-5-phenyl-7H-thieno[2,3-b]pyridine-4,6-dione] the “Activity: Ratio between the % of control” value (AMPK) was “A (0%<A<50%)”.
In the case of `COc1c(-c2c(Cl)sc3c2C(=O)C(F)(c2ccccc2)C(=O)N3)ccc(C)c1F` (centres unmarked) [No 230, 2-chloro-5-fluoro-3-(3-fluoro-2-methoxy-4-methyl-phenyl)-5-phenyl-7H-thieno[2,3-b]pyridine-4,6-dione], the “Activity: Ratio between the % of control” value (AMPK) is reported as “A (0%<A<50%)”.
For `COC1(c2ccccc2)C(=O)Nc2sc(Cl)c(-c3ccc(F)cc3O)c2C1=O` (centres unmarked) [No 231, 2-chloro-3-(4-fluoro-2-hydroxy-phenyl)-5-methoxy-5-phenyl-7H-thieno[2,3-b]pyridine-4,6-dione], the “Activity: Ratio between the % of control” value (AMPK) was “C (C≧75%)”.
With `Cc1ccc(-c2c(Cl)sc3c2C(=O)C(Cl)(c2ccccc2)C(=O)N3)c(O)c1F` (centres unmarked) [No 232, 2,5-dichloro-3-(3-fluoro-2-hydroxy-4-methyl-phenyl)-5-phenyl-7H-thieno[2,3-b]pyridine-4,6-dione] the “Activity: Ratio between the % of control” value (AMPK) was “C (C≧75%)”.
With `Cc1c(F)ccc(-c2c(Cl)sc3c2C(=O)C(Cl)(c2ccccc2)C(=O)N3)c1O` (centres unmarked) [No 233, 2,5-dichloro-3-(4-fluoro-2-hydroxy-3-methyl-phenyl)-5-phenyl-7H-thieno[2,3-b]pyridine-4,6-dione] the “Activity: Ratio between the % of control” value (AMPK) was “C (C≧75%)”.
